Experimental findings from patent US8841281B2, “Transition metal complexes of amino acids and related ligands and their use as catalysts, anti-microbials, and anti-cancer agents” (Virginia Tech Intellectual Properties, Inc., priority 2011, dated 2014) are described below.

In one test the test system is E. coli. The test can be described thus: MIC of complexes against E. coli. The format is cell-based.
The subject of the next test is M. smegmatis. The experiment in a line: 96 well plate dilution test, MIC against M. smegmatis. It is filed as cell-based. The conditions noted are these: Iridium piano stool complexes.
The subject of the next test is M. chelonae. The experiment in a line: 96 well plate dilution test, MIC against M. chelonae. The format is cell-based.
The next test concerns M. abscessus. The test can be described thus: 96 well plate dilution test, MIC against M. abscessus. The note with it: Iridium piano stool complexes. The format is cell-based.
The subject of test [1] is Mycobacterium smegmatis strain mc^2155. It is filed as cell-based.
The test system of test [2] is Mycobacterium bovis strain BCG. It is filed as cell-based.
Test [3] relates to Mycobacterium avium strain A5.
Test [4] deals with Mycobacterium intracellulare.
Test [5] concerns Mycobacterium abscessus strain AAy-P-1.
The subject of test [6] is Mycobacterium marinum ATCC 927.
In test [7] the test system is Mycobacterium chelonae strain EO-P-1.
Test [8] relates to mycobacteria, Staphylococcus aureus and methicillin-resistant S. aureus (MRSA). The note with it: among Ir, Ru, Rh L-α-amino acid complexes.
Another test has as its system S. Aur. The test can be described thus: Activity against S. Aur (Table VIIIB). The format is cell-based, Staphylococcus aureus.
The next test has as its system MRSA. The test can be described thus: Activity against MRSA strains (Table VIIIB, compounds used alone). The format is cell-based, Staphylococcus aureus.

Some results are limits rather than exact numbers.

On to `C1=CCCC=CCC1.C[P](C)(C)[Ir+]([P](C)(C)C)[P](C)(C)C.[Cl-]` [Ir(COD)(PMe3)3], for which, in the test on E. coli, the “MIC ug/mL E. coli” value turned out to be 60 µg/mL.

As for Cp*IrCl (L-Proline) [1 (L-pro)], in the test with M. smegmatis, the “M. smegmatis MIC” value is 3.9 µg/mL. For the same compound, in the test on M. chelonae, the “M. chelonae MIC” value came to 7.5 µg/mL. Also, the “M. abscessus MIC” value with M. abscessus came out at 3.9 µg/mL. The “Minimal Inhibitory Concentration (MIC) M. smegmatis” value in test [1] was determined as 10 µg/mL. Besides, the “Minimal Inhibitory Concentration (MIC) M. bovis” value in test [2] stood at 15 µg/mL. The “Minimal Inhibitory Concentration (MIC) M. avium” value in test [3] was 125 µg/mL. For the same compound, the “Minimal Inhibitory Concentration (MIC) M. intracellulare” value in [4] stood at 61 µg/mL. Further, the “Minimal Inhibitory Concentration (MIC) M. abscessus” value in test [5] stood at 15 µg/mL. In test [6], the “Minimal Inhibitory Concentration (MIC) M. marinum” value is more than 250 µg/mL. Also, the “Minimal Inhibitory Concentration (MIC) M. chelonae” value in test [7] turned out to be 15 µg/mL. Also, the “relative anti-mycobacterial / antibiotic activity” value in test [8] is listed as “highest activity”.

In the case of `CN(C)CCN` [4 (N,N-dimethyl ethylenediamine)], in the test on S. Aur, the “Activity (MIC) S. Aur” value was more than 250 µg/mL. Besides, the “Activity (MIC) MRSA PI-1” value in the test on MRSA (strain PI-1) was more than 250 µg/mL. The “Activity (MIC) MRSA PI-34380” value in the test with MRSA (strain PI-34380) is more than 250 µg/mL. In addition, the “Activity (MIC) MRSA PI-34864” value in the test with MRSA (strain PI-34864) is more than 250 µg/mL. Further, the “Activity (MIC) MRSA PI-36361” value with MRSA (strain PI-36361) was more than 250 µg/mL. For the same compound, the “Activity (MIC) MRSA PI-43300” value in the test on MRSA (strain PI-43300) was more than 250 µg/mL. In the test with MRSA (strain PI-52300), the “Activity (MIC) MRSA PI-52300” value was more than 250 µg/mL. In addition, in the test with MRSA (strain PI-53016), the “Activity (MIC) MRSA PI-53016” value was more than 250 µg/mL.
